In ChEMBL document CHEMBL5131569, “SAGE-718: A First-in-Class N-Methyl-d-Aspartate Receptor Positive Allosteric Modulator for the Potential Treatment of Cognitive Impairment” (J Med Chem, 2022):
≈ marks a conversion by molar mass, not a printed value.

Columns and labels:
[1] = target: Glutamate NMDA receptor; GRIN1/GRIN2A (Homo sapiens, UniProt Q05586+Q12879); test: Positive allosteric modulation of recombinant human GluN1/GluN2A receptor stably expressed in HEK293 cells assessed as increase in glycine/L-glutamate-induced channel current at -70 mV holding potential by whole cell patch clamp method; type: cell-based
[2] = Oral bioavailability in Beagle dog by LC-MS/MS analysis; type: ADME, organism-based, Canis lupus familiaris; details: in vivo
[3] = target: Ionotropic glutamate receptor NMDA 1/2D (Homo sapiens, UniProt O15399+Q05586); test: Positive allosteric modulation of recombinant human GluN1/GluN2D receptor stably expressed in HEK293 cells assessed as increase in glycine/L-glutamate-induced channel current at -70 mV holding potential by whole cell patch clamp method
[4] = Drug concentration in CD-1 mouse brain at 7.5 mg/kg, ip administered for 90 mins; type: ADME, organism-based; details: read-out: Ct
[5] = Aqueous solubility of compound in PBS incubated for 1 hr under shaking condition by HPLC-MS/MS analysis; type: physicochemical
[6] = target: Glutamate NMDA receptor; GRIN1/GRIN2B (Homo sapiens, UniProt Q05586+Q13224); test: Positive allosteric modulation of recombinant human GluN1/GluN2B receptor stably expressed in HEK293 cells assessed as increase in glycine/L-glutamate-induced channel current at -70 mV holding potential by whole cell patch clamp method; type: cell-based
[7] = Metabolic stability in dog hepatocytes assessed as clearance at 10 uM measured upto 120 mins by LC-MS/MS analysis; type: ADME, cell-based, Canis lupus familiaris, Hepatocyte; details: 2 h
Cytochrome P450 2D6 = Cytochrome P450 2D6 (Homo sapiens, UniProt P10635); test: Inhibition of CYP2D6 (unknown origin); type: ADME
in vivo = details: Sprague-Dawley, rat, brain and plasma
Description: Ratio of AUC(0 to 72 hrs) in Sprague-Dawley rat brain to plasma by LC-MS/MS analysis

[8] = Drug concentration in CD-1 mouse brain at 3 mg/kg, ip administered for 90 mins; type: ADME, organism-based; details: read-out: Ct
[9] = Metabolic stability in rat liver microsomes assessed as intrinsic clearance at 10 uM preincubated for 5 mins followed by NADPH addition and measured upto 65 mins by LC-MS/MS analysis; type: ADME, Microsome; details: time < 70 min, read-out: CLH
Mus musculus [10] = test: Reversal of DOI-induced hyperlocomotion in CD-1 mouse assessed as reduction in rearing at 10 mg/kg, ip administered 90 mins prior to DOI induction and measured upto 30 mins post DOI treatment (reference value: 59.8 +/- 8.6 Counts); type: functional; details: time <= 120 min, 2 h
Mus musculus [11] = test: Reversal of DOI-induced hyperlocomotion in CD-1 mouse assessed as reduction in distance travel at 3 mg/kg, ip administered 90 mins prior to DOI induction and measured upto 30 mins post DOI treatment (reference value: 7.8 +/- 0.8 meter); type: functional; details: time <= 120 min, 2 h
Cytochrome P450 2B6 = target: T1, Cytochrome P450 2B6 (Homo sapiens, UniProt P20813); test: Inhibition of CYP2B6 (unknown origin); type: ADME
T1 sequence (P20813 whole entry): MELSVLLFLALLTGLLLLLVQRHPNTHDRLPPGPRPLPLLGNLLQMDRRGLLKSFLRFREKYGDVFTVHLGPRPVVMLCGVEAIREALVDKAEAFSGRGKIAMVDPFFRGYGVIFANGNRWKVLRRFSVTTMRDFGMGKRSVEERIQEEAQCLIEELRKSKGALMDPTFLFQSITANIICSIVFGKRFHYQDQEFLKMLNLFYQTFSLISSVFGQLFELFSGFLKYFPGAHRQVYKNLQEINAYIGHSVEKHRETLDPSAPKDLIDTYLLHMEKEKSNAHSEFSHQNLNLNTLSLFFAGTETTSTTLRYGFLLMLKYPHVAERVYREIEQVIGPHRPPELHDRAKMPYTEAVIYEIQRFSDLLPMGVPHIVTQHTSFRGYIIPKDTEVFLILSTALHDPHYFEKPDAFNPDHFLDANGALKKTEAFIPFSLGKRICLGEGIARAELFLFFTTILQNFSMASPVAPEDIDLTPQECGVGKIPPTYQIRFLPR

[12] = Drug concentration in CD-1 mouse plasma at 3 mg/kg, ip administered for 90 mins; type: ADME, organism-based
Cytochrome P450 2C8 = target: T2, Cytochrome P450 2C8 (Homo sapiens, UniProt P10632); test: Inhibition of CYP2C8 (unknown origin); type: ADME
T2 sequence (P10632 whole entry): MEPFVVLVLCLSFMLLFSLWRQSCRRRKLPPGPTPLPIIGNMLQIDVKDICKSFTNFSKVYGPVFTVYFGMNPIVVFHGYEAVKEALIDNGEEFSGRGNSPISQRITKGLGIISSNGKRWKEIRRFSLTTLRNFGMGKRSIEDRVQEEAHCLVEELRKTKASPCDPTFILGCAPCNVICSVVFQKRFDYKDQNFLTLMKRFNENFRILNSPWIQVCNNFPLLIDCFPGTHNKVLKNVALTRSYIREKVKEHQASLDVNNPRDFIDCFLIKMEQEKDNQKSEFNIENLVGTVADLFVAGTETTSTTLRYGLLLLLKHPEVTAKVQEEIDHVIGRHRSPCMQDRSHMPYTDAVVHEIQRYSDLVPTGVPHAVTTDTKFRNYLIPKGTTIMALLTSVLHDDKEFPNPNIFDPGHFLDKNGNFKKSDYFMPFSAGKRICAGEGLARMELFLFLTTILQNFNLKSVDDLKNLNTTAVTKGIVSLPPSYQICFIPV

Mus musculus [13] = test: Reversal of DOI-induced hyperlocomotion in CD-1 mouse assessed as reduction in distance travel at 5 mg/kg, ip administered 90 mins prior to DOI induction and measured upto 30 mins post DOI treatment (reference value: 7.8 +/- 0.8 meter); type: functional; details: time <= 120 min, 2 h
[14] = Metabolic stability in rat hepatocytes assessed as clearance at 10 uM measured upto 120 mins by LC-MS/MS analysis; type: ADME, cell-based, Hepatocyte; details: 2 h
[15] = Ratio of drug concentration in ip dosed CD-1 mouse brain to plasma after 1 hr by LC-MS/MS analysis; type: ADME, organism-based; details: brain and plasma
[16] = Metabolic stability in mouse liver microsomes assessed as intrinsic clearance at 10 uM preincubated for 5 mins followed by NADPH addition and measured upto 65 mins by LC-MS/MS analysis; type: ADME, Microsome; details: time < 70 min, read-out: CLH
[17] = Plasma protein binding in dog after 15 mins by equilibrium dialysis method; type: ADME, cell-free, Canis lupus familiaris; details: read-out: PPB (converted)

Chain of Glutamate NMDA receptor; GRIN1/GRIN2B (Q13224 whole entry, other chains not shown): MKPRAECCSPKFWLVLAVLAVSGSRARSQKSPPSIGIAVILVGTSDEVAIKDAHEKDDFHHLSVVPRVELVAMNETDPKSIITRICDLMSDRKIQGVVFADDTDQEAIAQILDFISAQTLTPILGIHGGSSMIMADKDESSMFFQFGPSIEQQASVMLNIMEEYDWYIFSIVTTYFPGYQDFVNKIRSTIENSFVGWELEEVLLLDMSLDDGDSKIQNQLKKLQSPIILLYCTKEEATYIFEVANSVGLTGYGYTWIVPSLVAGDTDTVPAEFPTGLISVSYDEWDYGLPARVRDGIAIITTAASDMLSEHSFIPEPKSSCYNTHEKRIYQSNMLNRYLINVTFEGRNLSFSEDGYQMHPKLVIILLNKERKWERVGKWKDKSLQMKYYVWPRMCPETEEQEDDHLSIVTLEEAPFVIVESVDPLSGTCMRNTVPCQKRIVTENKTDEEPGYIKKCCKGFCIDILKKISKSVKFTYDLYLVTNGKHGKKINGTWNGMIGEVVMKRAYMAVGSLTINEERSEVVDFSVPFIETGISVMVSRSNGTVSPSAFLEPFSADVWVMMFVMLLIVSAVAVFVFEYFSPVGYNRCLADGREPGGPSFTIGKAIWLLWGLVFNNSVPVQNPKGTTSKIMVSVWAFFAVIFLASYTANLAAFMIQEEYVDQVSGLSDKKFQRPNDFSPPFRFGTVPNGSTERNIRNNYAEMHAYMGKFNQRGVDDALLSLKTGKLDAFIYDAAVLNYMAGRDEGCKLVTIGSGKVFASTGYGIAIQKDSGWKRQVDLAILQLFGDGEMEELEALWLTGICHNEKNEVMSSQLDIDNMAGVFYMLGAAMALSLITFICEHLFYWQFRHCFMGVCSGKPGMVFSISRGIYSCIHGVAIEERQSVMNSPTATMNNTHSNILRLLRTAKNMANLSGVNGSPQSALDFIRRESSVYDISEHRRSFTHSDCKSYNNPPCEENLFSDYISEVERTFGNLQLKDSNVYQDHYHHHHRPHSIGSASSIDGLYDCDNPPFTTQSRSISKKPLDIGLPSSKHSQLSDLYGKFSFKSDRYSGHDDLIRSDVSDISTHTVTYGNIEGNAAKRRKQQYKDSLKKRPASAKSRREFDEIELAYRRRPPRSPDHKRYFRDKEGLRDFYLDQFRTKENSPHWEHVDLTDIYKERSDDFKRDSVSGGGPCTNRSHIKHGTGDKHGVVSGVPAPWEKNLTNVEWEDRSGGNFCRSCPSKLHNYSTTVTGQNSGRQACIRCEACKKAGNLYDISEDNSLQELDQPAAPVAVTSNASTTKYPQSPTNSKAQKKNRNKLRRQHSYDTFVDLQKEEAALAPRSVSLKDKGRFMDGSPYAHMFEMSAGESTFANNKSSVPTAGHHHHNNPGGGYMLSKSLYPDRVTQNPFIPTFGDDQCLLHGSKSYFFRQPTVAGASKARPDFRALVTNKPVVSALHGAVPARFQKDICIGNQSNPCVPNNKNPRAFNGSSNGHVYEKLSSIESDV
Chain of Glutamate NMDA receptor; GRIN1/GRIN2A (Q12879 whole entry, other chains not shown): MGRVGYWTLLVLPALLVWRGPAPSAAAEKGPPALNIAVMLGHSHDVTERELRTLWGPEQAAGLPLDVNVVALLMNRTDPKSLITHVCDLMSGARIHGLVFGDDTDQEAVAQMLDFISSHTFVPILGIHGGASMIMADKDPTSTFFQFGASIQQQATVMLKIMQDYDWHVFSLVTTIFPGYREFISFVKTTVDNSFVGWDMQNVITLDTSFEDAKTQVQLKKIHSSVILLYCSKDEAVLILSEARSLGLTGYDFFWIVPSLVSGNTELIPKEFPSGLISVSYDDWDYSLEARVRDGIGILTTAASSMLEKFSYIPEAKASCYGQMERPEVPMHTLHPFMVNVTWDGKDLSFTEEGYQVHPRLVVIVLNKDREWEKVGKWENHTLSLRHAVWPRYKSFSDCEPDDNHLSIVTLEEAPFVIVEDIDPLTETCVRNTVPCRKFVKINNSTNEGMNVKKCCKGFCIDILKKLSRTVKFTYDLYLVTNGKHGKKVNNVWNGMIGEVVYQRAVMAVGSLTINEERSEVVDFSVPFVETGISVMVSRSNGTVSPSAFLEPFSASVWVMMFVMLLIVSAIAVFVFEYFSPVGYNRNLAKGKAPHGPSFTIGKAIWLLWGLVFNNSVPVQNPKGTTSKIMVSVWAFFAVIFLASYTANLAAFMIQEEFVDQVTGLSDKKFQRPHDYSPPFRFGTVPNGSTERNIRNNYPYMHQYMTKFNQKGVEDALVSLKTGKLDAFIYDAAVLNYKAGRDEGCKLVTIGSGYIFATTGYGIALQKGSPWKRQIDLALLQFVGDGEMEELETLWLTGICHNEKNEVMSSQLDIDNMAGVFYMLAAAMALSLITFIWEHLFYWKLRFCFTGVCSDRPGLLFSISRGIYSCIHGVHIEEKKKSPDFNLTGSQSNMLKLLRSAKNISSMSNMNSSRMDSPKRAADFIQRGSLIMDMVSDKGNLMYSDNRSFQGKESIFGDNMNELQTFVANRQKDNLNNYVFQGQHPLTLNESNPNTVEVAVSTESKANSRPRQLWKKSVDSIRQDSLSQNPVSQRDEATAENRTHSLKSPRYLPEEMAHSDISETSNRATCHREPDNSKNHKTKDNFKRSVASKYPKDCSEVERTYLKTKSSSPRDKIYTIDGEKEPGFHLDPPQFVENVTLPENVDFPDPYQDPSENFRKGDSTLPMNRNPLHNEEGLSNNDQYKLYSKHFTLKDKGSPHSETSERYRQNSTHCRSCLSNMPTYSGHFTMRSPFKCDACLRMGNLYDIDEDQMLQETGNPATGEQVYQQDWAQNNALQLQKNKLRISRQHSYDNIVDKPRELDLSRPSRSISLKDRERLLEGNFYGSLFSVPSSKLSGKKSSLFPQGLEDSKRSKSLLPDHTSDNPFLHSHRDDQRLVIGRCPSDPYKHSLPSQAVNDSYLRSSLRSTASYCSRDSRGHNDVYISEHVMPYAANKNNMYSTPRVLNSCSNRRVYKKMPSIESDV
Chain of Ionotropic glutamate receptor NMDA 1/2D (O15399 whole entry, other chains not shown): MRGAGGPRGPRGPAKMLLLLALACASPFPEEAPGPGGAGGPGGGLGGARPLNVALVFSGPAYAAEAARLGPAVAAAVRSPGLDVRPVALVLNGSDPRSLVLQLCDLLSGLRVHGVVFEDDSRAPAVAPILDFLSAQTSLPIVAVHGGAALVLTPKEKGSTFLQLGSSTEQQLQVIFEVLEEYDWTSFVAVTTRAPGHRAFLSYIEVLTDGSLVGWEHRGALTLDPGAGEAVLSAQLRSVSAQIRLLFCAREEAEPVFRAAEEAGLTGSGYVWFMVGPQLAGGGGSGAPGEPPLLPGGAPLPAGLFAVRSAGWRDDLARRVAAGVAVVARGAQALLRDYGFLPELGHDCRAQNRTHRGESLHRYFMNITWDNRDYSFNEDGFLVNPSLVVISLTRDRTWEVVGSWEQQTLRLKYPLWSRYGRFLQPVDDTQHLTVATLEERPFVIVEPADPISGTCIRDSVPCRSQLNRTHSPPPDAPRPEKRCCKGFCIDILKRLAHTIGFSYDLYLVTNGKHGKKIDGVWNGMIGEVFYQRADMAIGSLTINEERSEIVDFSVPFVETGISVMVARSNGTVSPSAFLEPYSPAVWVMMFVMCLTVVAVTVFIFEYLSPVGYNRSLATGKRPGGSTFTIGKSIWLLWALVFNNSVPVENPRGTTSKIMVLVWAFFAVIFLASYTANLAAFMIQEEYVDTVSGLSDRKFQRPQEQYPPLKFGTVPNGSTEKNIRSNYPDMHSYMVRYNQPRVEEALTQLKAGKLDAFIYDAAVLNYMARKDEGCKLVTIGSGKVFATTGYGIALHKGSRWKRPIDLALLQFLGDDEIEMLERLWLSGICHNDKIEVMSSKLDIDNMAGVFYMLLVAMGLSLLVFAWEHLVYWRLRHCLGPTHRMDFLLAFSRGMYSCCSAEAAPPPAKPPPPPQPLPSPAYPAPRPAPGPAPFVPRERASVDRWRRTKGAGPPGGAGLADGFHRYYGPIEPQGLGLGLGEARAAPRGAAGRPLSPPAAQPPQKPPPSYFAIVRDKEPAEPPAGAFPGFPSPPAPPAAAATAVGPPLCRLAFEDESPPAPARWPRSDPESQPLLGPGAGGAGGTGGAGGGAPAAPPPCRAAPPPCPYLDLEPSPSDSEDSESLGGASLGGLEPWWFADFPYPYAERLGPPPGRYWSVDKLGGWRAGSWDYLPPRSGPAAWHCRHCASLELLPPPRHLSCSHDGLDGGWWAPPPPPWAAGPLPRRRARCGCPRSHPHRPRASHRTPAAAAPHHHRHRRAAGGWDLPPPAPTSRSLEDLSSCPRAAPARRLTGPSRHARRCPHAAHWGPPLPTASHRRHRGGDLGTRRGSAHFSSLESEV
Chain of Cytochrome P450 2D6 (P10635 whole entry): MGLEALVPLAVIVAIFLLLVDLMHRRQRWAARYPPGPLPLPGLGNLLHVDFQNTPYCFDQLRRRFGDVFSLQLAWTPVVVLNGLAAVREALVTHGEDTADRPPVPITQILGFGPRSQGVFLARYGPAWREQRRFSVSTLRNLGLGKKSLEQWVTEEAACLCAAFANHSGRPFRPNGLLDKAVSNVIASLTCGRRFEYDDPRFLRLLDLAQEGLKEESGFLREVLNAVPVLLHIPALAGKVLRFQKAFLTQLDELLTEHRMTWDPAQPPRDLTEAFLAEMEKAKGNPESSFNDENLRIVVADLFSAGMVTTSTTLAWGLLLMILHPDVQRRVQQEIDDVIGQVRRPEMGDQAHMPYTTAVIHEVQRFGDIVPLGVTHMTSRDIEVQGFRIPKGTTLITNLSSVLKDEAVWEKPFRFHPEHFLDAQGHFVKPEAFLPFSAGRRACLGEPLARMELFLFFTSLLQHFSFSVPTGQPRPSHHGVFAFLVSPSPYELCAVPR

EC50 [1]: 86 nM
bioavailability [2]: 30%
EC50 [3]: 430 nM
concentration at 1.5 h [4]: 1190 ng/g
solubility at 1 h [5]: 2.2 µM (≈ 1 µg/mL)
EC50 [6]: 79 nM
CLH [7]: 15 mL/min/kg
IC50 (Cytochrome P450 2D6): > 100000 nM
Kp (in vivo): 5.3
concentration at 1.5 h [8]: 490 ng/g
microsomal CLint at 10 µM [9]: 11 µL/min/mg
IC50 (Cytochrome P450 2B6): > 100000 nM
concentration at 1.5 h [12]: 577 ng/mL
IC50 (Cytochrome P450 2C8): > 10000 nM
CLH [14]: 18.3 mL/min/kg
Kp at 1 h [15]: 0.2
microsomal CLint at 10 µM [16]: < 1 µL/min/mg
fraction unbound at 0.25 h [17]: 0.028
Compound: C[C@H](CC[C@](C)(O)C(F)(F)F)[C@H]1CC[C@H]2[C@@H]3CC=C4C[C@@](C)(O)CC[C@]4(C)[C@H]3CC[C@]12C [DALZANEMDOR]
Activity (Mus musculus [10]): 7.7 Counts
Activity (Mus musculus [11]): 6.9 m
Activity (Mus musculus [13]): 4.1 m
